In patent US8758769B2, “Composition for preventing and treating acetaminophen inducing liver injury comprising the protein extract from Porphyra yezoensis” (Pukyong National University Industry Academic Cooperation …, priority 2006, dated 2014):

How the values were obtained:
[1] = tested on: caspase-3, PARP, Bcl-2 in liver cell; test: Western blot of cell apoptosis related proteins in liver cell treated by AAP; assay type: cell-based; conditions: liver cell treated by AAP according to the concentration, 24 hours
Experimental: Through the above results, since it is confirmed that the cell apoptosis of the liver cell is induced by AAP, the liver cell is treated by means of AAP according to the concentration and the western blot is executed to observe the expression modes of the protein related to the cell apoptosis. For this, a cell is cultured at a culture dish of 100-mm diameter until it become a confluent monolayer of a confluent state by a medium containing 10% FBS. Thereafter, the medium is replaced with a serum free medium and cultured for 24 hours. After 24 hours, each sample is treated by a serum free medium added according to the concentration and cultured for 24 hours. The culture solution is removed, then washed by the cold PBS solution, and thereafter the cell is recovered through the cell lysate buffer solution containing 1% triton. After the centrifugal process, 4× Laemmli sample buffer (13.3% SDS, 0.4M Tris, 0.013% bromopheno blue, 40% glycerol, pH 6.5) is added to the obtained upper layer solution by 1× of concentration and then an electrophoresis manner is performed in 12.5% SDS-polyacrylamid gel by means of Mighty Small II Apparatus (Hopper Science Instruments, USA). After the electrophoresis manner, the protein separated into the gel is transferred to Immobilon-P membrane (Milipore corporation, the pore size: 0.1[…], USA) by means of Semi-dry Transfer unit, Sigma, USA), reacted at the room temperature for 2 hours in 1×TBS (Tris-buffered saline; 20 mM Tris-base, 137 mM NaCl, 1M HCl) containing 1% BSA, and thereafter left for a night at 4° C. by a primary antibody. Thereafter, the protein is washed by three times at each 10 minutes by TBS-T (Tris-buffered saline, 0.1% Tween 20) and reacted at the room temperature for 1 hour together with the anti-rabbit or anti-mouse IgG-conjugated horseradish peroxide secondary antibody diluted by 1:20,000. […]

[2] = tested on: DNA within the liver tissue; test: DNA fragmentation in the liver tissue; assay type: in vivo, rat; conditions: rats, AAP 700 mg/kg
Excerpt: To confirm the modes of the cell apoptosis, DNA within the liver tissue is extracted and then the degree of fragmentation is examined.

[3] = tested on: liver tissue of a rat; test: Liver appearance and H&E histology of liver tissue, AAP induced liver injury; assay type: in vivo; conditions: rats, AAP 700 mg/kg abdominal administration, 24 hours
Experimental: For this, the liver tissue of the white rat bred by each experiment group is extracted and lightly washed by the saline solution so that blood is removed. A portion of the liver tissue is cut and then the cut liver tissue is cut into thickness of 0.5 cm and fixed into Bouin fixation solution. Thereafter, the cut liver tissue is inserted into a tissue capsule within 24 hours by using the same fixation solution and fixed again. Thereafter, the fixed tissue is washed, inserted into an autotechnicon, dehydrated in the sequencing concentration alcohol and processed transparently by xylene. At an embedding center, paraffin is infiltrated into the tissue capsule and an embedding process is performed, so that a block is manufactured. The block is cut thinly with thickness of 5[…] by a rotary microtome and the cut blocks are left in a floating thermostat in order to be spreaded fully and then attached onto a clean slide glass. Thereafter, to firmly adhere the slide glass and the tissue cut pieces, the slide glass with the tissue cut pieces is left at a slide warmer maintaining temperature of about 60° C. Finally, to basically observe the arrangement of cell and the morphological change, all tissue pieces are dyed by Hematoxylin & Eosin capable of separately seeing the nucleus and cytoplasm and thereafter, observed by an optical microscopy.

[4] = tested on: HepG2 liver cell; test: Proliferation of HepG2 liver cell by AAP treatment (MTS/MTT); assay type: cell-based; conditions: AAP in serum free medium, 24 hours and 48 hours, FIG. 7
Experimental: The used HepG2 liver cell is distributed by ATCC (American Type Culture Center).
Antibiotics (penicillin/streptomycin) of 100 units/ml is added to an MEM medium and then filtrated by a filter of 0.22[…]. Before the culture, FBS (Fetal bovine serum) is added, thereby obtaining the final concentration of 10%. The cell is cultured in a 5% CO2 incubator at 37° C. During the culture of the cell, the medium is replaced by twice a week and when the medium is a confluent state, the medium is washed by PBS (Phosphate Buffered Saline). Thereafter, the attached cells are separated by 0.05% of trypsin solution and centrifuged, then each cell is mixed, dispersed properly by using a pipet and divided identically.
To examine the cell proliferation and the toxicity, the HepG2 liver cell is controlled by concentration of 5×10^4 cells/ml, and divided into 96-well microplates (palcon, USA) by 100[…] per a well and cultured. After 24 hours, a medium is replaced with a serum free medium and then cultured again for 24 hours. A protein sample is dissolved into the serum free medium, then diluted until 0.01% concentration. The dilution solution by each concentration is added to each cell line and cultured for 24 hours at the 5% CO2 incubator at 37° C. […] Thereafter, the absorbance at 490 nm is measured by using an automatic ELIZA reader and the cell survival ratio is calculated by a calculation formula 1. […]

[5] = tested on: GSH (Glutathione) in the liver tissue; test: Glutathione content in the liver tissue; assay type: in vivo, rat; conditions: rats, AAP 700 mg/kg; compared with the control group of 100%
Experimental: Accordingly, the GSH activity in the liver tissue is measured. For this, the liver tissue is homogenized by 5% of sulfosalicylic acid, then frozen by the liquid nitrogen and thereafter a thaw process is executed repeatedly by twice in a cistern of 37° C. Thereafter, the defrosted liver tissue is left for 5 minutes At 4° C. and centrifuged at 4° C., 1,000×g, for 10 minutes, so that the upper solution is obtained. The upper solution and the standard solution within the GSH assay kit are divided into a 96-well plate, respectively, thereafter a working mixture is added to the 96-well plate, and a reaction is progressed at the room temperature for 5 minutes. After 5 minutes, NADPH is inserted into the above plate and mixed through a pipet and then the absorbance is measured by the interval of 5 minutes at 412 nm.

SMILES: CC(=O)Nc1ccc(O)cc1 [AAP, Acetaminophen]
- Caspase-3 cleavage/activity (western blot, FIG. 8) [1]: cleaved and then the activity is increased
- Expression of Bcl-2 (western blot, FIG. 8) [1]: inhibited according to the increase of the AAP concentration
- PARP cleavage (western blot, FIG. 8) [1]: cleaved from 116 kDa to 85 kDa
- DNA fragmentation in the liver tissue (FIG. 6(B)) [2]: a certain DNA fraction is observed
- Colour/appearance of the liver (degree of liver injury, FIG. 2) [3]: the liver tissue represents the bright brown
- Inside of the liver tissue by optical microscopy, H&E dyeing (FIG. 3) [3]: plural nucleus decomposition positions are observed about the central vein
- Proliferation of the HepG2 liver cell [4]: inhibited according to increase of the AAP concentration and the culture time
- GSH content in the liver tissue [5]: 85.39±4.81%
